From patent US9458101B2 (priority 2009, dated 2016)

Legend:
[1] = tested on: MCF-7 (Human mammary gland adenocarcinoma); test: Cytotoxicity testing (MTS) on MCF-7; assay type: cell-based
Protocol: (§1) Cell lines used were A549 (Human lung carcinoma), HeLa (Human cervical carcinoma), MCF-7 (Human mammary gland adenocarcinoma), CEM (Human T-lymphoblastoid from ALL (Acute lymphoblastic leukemia)), M010B (Human glioma), M006X (Human glioma) and Jurkat (Human T-cell leukemia).
(§2) A series of dilutions were prepared and a wavelength scan of the diluted solution was used to determine the wavelength of maximum absorbance for each compound. Five standardized drug concentrations were scanned at this pre-determined wavelength to obtain an estimate of the compound's extinction coefficient.
(§3) A primary MTS assay was used to test the optimal number of cells for cytotoxicity assays. Cells were trypsinized, counted and introduced into seven lanes of a 96-well plate at different cell numbers (eight replicates per lane). Optimal cell numbers were determined after 72 and 96 hours of growth and were used in subsequent cytotoxicity assays. […] Cell viability was determined using the Cell Titer 96 AQueous One Solution Cell Proliferation Assay (Promega, U.S.A.).
(§4) Fits were performed using a dose-response model ideal for data showing an initial response plateau, a transition region, and a final response plateau.
(§5) [formula] […] Itop is the response obtained at very low/no drug concentration. The data and all parameters were normalized to Itop−Ibot, a measure of the maximum effect of the drug.

M010B (Human glioma) = test: Cytotoxicity testing (MTS) on M010B; assay type: cell-based
Protocol: as §1, §2, §3, §4, §5

CEM cells [2] = test: Viability of 3-D CEM cell cultures in Hollow Fiber Bioreactor (HFB), trypan blue; assay type: cell-based, Human; settings: for viability of cell cultures: samples analysed by HPLC; for number of viable cells: HFB, decreased from 10^9 cells/mL, 1000 nM, within 72 h; for viability of cells in HFB: after 3 days of treatment
Protocol: CEM cells (American Type Culture Collection, Manassas, Va.) were maintained in tissue culture flasks and cultured as monolayer in 20 mL of RPMI media containing 10% Fetal Bovine Serum (FBS). When the number of cells in the culture flask reached 5-6×10^6 cells/mL the culture was harvested and then inoculated into six Hollow Fiber Bioreactors (HFB, FiberCells System, Frederick, Md.) and were continuously cultured in 37° C. and 5% CO2. HFB consists of a single, hydrophylic and polysulfone fiber with 0.1 μm diameter pores. The media circulating within the HFB cartridge and polysulphone tubing, at flow rate of 14 mL/min, brings oxygen and nutrients to cells and removes CO2 and other waste. Collagen solution was used to create an extra cellular matrix between the cells and the fiber. The polysulphone fiber was coated with protein by flushing with 10 mL of coating solution containing 1 mg collagen per 1 mL Phosphate Buffered Saline (PBS). The pH was maintained in the extra-capillary space throughout the duration of experiments between 6.8 and 7.0. Due to the perfusion the HFB absorbed sufficient oxygen from the reservoir with fresh media to keep cells alive. The perfusion medium was changed weekly when the glucose level reached 2 g/L measured with a glucometer.
Viability was assessed using trypan blue (K. Takahashi, G. Loo, Biochem. Pharm. 67 (2004) 315-324). Briefly, CEM cells were harvested from HFB, seeded in 6 well microplates and exposed to 0.4% (w/v) trypan blue dye solution. Cell number was determined manually with a hemacytometer chamber (Hausser Scientific, Horsham, Pa.).
Approximately 4×10^4 CEM cells/ml were treated on culture plates and placed for the 72 h incubation with (2-16) and (28-38) derivatives. All compounds were used for in vitro experiments and then the derivatives were selected for HFB studies to treat 10^9 CEM cells/mL in the 3-D cultures. The cells were treated 4 weeks after the cells' inoculation in the HFB. After 72 h, the growth was inhibited over 50% for 20 nM and higher concentrations in cells treated with (6), (13), (28) and (35).
CEM cells, American Type Culture Collection (Manassas, Va.), were maintained in tissue culture flasks and cultured as monolayer in 20 ml of RPMI media containing 10% Fetal Bovine Serum (FBS) and divided from 5×10^5 cells/mL to 2.5×10^4 cells/mL two times per week. When the number of the cells in the culture flask reached 5-6×10^6 cells/ml the culture was harvested and then inoculated into six Hollow Fiber Bioreactors (HFB, FiberCells System Inc., Frederick, Md.) and then continuously cultured in 37° C. and 5% CO2. The HFB consists of a single, hydrophylic and polysulfone fiber with 0.1 μm diameter pores. The media circulate within the HFB cartridge and polysulphone tubing, at flow rate of 14 mL/min, bringing oxygen and nutrients to cells and removing CO2 and other waste. Collagen solution was used to create an extracellular matrix between cells and fiber. The polysulfone fiber was coated with protein by flushing with 10 mL of coating solution containing 1 mg collagen per 1 mL Phosphate Buffered Saline (PBS). In this manner, CEM cells growing originally in suspension build up a 3-D solid tumor. During 4 weeks of culturing, the media were replaced each week.
The number of cells was determined using Trypan blue (Sigma-Aldrich, Oakville, ON) exclusion method (K. Takahashi, G. Loo, Biochem. Pharmacol. 67 (2004) 315-324). Briefly, CEM cells were harvested from HFB, seeded in 6 well microplates and exposed to 0.4% (w/v) trypan blue dye solution. Cell number was determined manually with a hemacytometer chamber (Hausser Scientific, Horsham, Pa.).

[3] = tested on: CEM (Human T-lymphoblastoid from ALL); test: Cytotoxicity testing (MTS) on CEM; assay type: cell-based
Protocol: as §1, §2, §3, §4, §5

[4] = tested on: A549 (Human lung carcinoma); test: Cytotoxicity testing (MTS) on A549; assay type: cell-based
Protocol: as §1, §2, §3, §4, §5

[5] = tested on: A549, HeLa, MCF-7 and CEM cell lines; test: Cytotoxicity, mean over A549, HeLa, MCF-7 and CEM cell lines; settings: for IC50 [log10 M] (mean logIC50): mean over A549, HeLa, MCF-7 and CEM cell lines
From the text: as §1, §3, §5
Cytotoxicity screening was performed on a number of cell lines based on the cancer of origin and differing morphologies.

M006X (Human glioma) = test: Cytotoxicity testing (MTS) on M006X; assay type: cell-based
Protocol: as §1, §2, §3, §4, §5

[6] = tested on: HeLa (Human cervical carcinoma); test: Cytotoxicity testing (MTS) on HeLa; assay type: cell-based
Protocol: as §1, §2, §3, §4, §5

CEM cells [7] = test: HPLC-UV profile of treated CEM cells; assay type: cell-based, Human; settings: for expression of MHC (class I) receptor, HPLC peak intensity: eluted at 53 min; for apoptotic protein signal, HPLC peak intensity: eluted at 57 min
Protocol: Digested cell samples were fractionated with a Gold HPLC chromatograph system equipped with a Gold 166 Ultra Violet (UV) Detector and 32-Karat software (Beckman-Coulter, Mississauga, ON, Canada). For reversed-phase HPLC, a Vydac 218 TP54 Protein & Peptide C18 analytical column, 300 Å pore size, 0.46 cm×25 cm (Separation Group, Hesperia, Calif., U.S.A.) was used. The chromatograph was equipped with a Rheodyne injector (5 μL). UV detection was performed at 245 nm. Eluent A consisted of 5% acetonitrile (ACN) water solution and eluent B of 0.01% trifluoroacetic acid in 95% ACN water solution. A linear gradient from 5 to 70% ACN was applied over 60 min.
It was assumed that signals eluted at 30-35 min were unreacted derivatives with variable intensity of 0.1 V for (28) and (35) as well as 0.35 V for (13) and 0.9 V for (6). […] An additional signal eluted at 57 min occurred in samples treated with (35) and (28) (FIGS. 10D and 10E). The signals at 57 min differ at about 5 min in elution present one from cascade of apoptotic protein in treated cells. The peak intensity of 0.3 V (28) and 0.2 V (35) corresponded to viability of cells 38% (28) and 35% (35) and unreacted derivatives 0.1 (28), 0.1 (35), respectively. The undefined additional peaks with very low intensities, less then 0.05 V, are the metabolites of derivatives or unreacted compounds.

CEM cells [8] = test: 19F MRI signal intensity of treated 3-D CEM cultures in HFB (cell number with fluorine uptake); assay type: cell-based, Human; settings: for mean CEM cell density in the region with lower densities / mean number of cells in the region with higher cell densities: MRI; for mean cell concentration corresponding to mean 19F SI: cells with fluorine derivative uptake
Protocol: All MRI experiments were performed using a 9.4 Tesla with 21 cm bore magnet (Magnex, U.K.) and TMX console (NRC-IBD, Canada). ^19F MR images were acquired using double (^19F and ^1H) tuned transmit/receive radio frequency (RF) volume coil operating at 376 MHz and 400 MHz corresponding to ^19F and ^1H Larmour frequency at 9.4 Tesla, respectively. ^1H MR images were collected in the same imaging session that ^19F MRI. Proton MR provided anatomical images of the culture. The MRI images monitored the localization of cells around the fiber in HFB as well as the volume of the cells. Moreover, ^19F MRI selectively visualizes only intracellular fluorine uptake with no background, therefore allows cell count. The cells before and after treatment with (6), (13), (28) and (35) were imaged with ^1H MRI, this allowed changes to be observed in the 3-D cell aggregation. The cells treated with 20 nM (28) and (35) were also imaged with ^19F MRI to measure fluorine content using ^19F NMR signal intensity (SI) in each HFB treated with (28) and (35). […] To obtain the calibration curves (for each derivative separately) the phantoms consisting of HFB tubes filled with 1 nM, 10 nM, 20 nM, 100 nM, 500 nM and 1000 nM of (28) or (35) and 10^3 cells, 10^4 cells, 10^5 cells, 10^6 cells, 10^7 cells, 10^8 cells and 10^9 cells were used. The linear regression was used to find the SI dependence on cell numbers. The cell numbers estimated from ^19F MR imaging were compared to the cell viability obtained from trypan blue assays. […] One 1 mm slice was acquired with a matrix size of 256×256 and a field of view of 3×3 cm for both ^19F and ^1H.

CEM cells [9] = assay type: cell-based, Human

| Structure (SMILES) | Fraction of cells that survive at the highest drug concentrations (Ibot) [1] | logIC50 [1] [log10 M] | Fraction of cells that survive at the highest drug concentrations (Ibot) (M010B (Human glioma)) | logIC50 (M010B (Human glioma)) [log10 M] | viability of cell cultures (CEM cells [2]) | Fraction of cells that survive at the highest drug concentrations (Ibot) [3] | logIC50 [3] [log10 M] | Fraction of cells that survive at the highest drug concentrations (Ibot) [4] | logIC50 [4] [log10 M] | IC50 [log10 M] (mean logIC50) [5] | Fraction of cells that survive at the highest drug concentrations (Ibot) (M006X (Human glioma)) | logIC50 (M006X (Human glioma)) [log10 M] | Fraction of cells that survive at the highest drug concentrations (Ibot) [6] | logIC50 [6] [log10 M] | expression of MHC (class I) receptor, HPLC peak intensity (CEM cells [7]) [V] | apoptotic protein signal, HPLC peak intensity (CEM cells [7]) [V] | number of viable cells (CEM cells [2]) | viability of cells in HFB (CEM cells [2]) [%] | mean CEM cell density in the region with lower densities (CEM cells [8]) | mean number of cells in the region with higher cell densities (CEM cells [8]) | other results |
| --- | --- | --- | --- | --- | --- | --- | --- | --- | --- | --- | --- | --- | --- | --- | --- | --- | --- | --- | --- | --- | --- |
| CCOc1c(OC)c(OC)cc2c1-c1ccc(OC)c(=O)cc1[C@@H](NC(C)=O)CC2 [Compound 6, N-[(7S)-1-(ethoxy)-2,3,10-trimethoxy-9-oxo-5,6,7,9-tetrahydrobenzo[α]heptalen-7-yl]acetamide] | 0.605 ± 0.015 | −7.42 ± 0.13 | 0.108 ± 0.013 | −7.94 ± 0.04 | 50%±4 | −0.062 ± 0.026 | −8.64 ± 0.08 | 0.249 ± 0.030 | −7.83 ± 0.10 | −7.95 ± 0.09 | 0.039 ± 0.011 | −8.41 ± 0.08 | 0.089 ± 0.026 | −7.89 ± 0.06 |  |  |  |  |  |  | average IC50 values compared with colchicine ([5]; average values of Table 3): stronger than colchicine |
| COc1cc2c(c(-c3cccnc3)c1OC)-c1ccc(OC)c(=O)cc1[C@@H](NC(C)=O)CC2 [Compound 13, N-[(7S)-2,3,10-trimethoxy-9-oxo-1-((pyridin(3))yl)-5,6,7,9-tetrahydrobenzo[α]heptalen-7-yl]acetamide] | 0.364 ± 0.038 | −5.19 ± 0.09 | 0.305 ± 0.053 | −4.90 ± 0.09 | 45%±2 | −0.026 ± 0.039 | −5.50 ± 0.10 | 0.218 ± 2.644 | −4.51 ± 0.32 | −5.13 ± 0.17 | 0.055 ± 0.046 | −5.67 ± 0.12 | 0.059 ± 0.059 | −5.33 ± 0.14 | 0.05 |  |  |  |  |  |  |
| CCOc1c(OC)c(OC)cc2c1-c1ccc(OC)c(=O)cc1[C@@H](NC(=O)CNC(=O)C(F)(F)F)CC2 [Compound 28] |  |  |  |  | 38%±4 |  |  |  |  |  |  |  |  |  |  | 0.3 | 3.45×10^8 cells/mL | 35 | 2.4×10^8 cells/mL | 3.5×10^8 cells/mL | mean cell concentration corresponding to mean 19F SI (CEM cells [8]): 6.03×10^8 cells/mL |
| COc1cc2c(c(OCc3cccnc3)c1OC)-c1ccc(OC)c(=O)cc1C(NC(=O)CNC(=O)C(F)(F)F)CC2 (centres unmarked) [Compound 35] |  |  |  |  | 35%±5 |  |  |  |  |  |  |  |  |  | 0.7 | 0.2 | 2.9×10^8 cells/mL | 30 | 1.4×10^8 cells/mL | 4.8×10^8 cells/mL | mean cell concentration corresponding to mean 19F SI (CEM cells [8]): 6.9×10^8 cells/mL |
| COc1c(O)cc2c(c1OC)-c1ccc(SC)c(=O)cc1[C@@H](N(C(C)=O)C(=O)CNC(=O)C(F)(F)F)CC2 [Compound 47, N-[(7S)-3-hydroxy-1,2-dimethoxy-10-methylsulfanyl-9-oxo-5,6,7,9-tetrahydrobenzo[α]heptalen-7-yl]-N-[(trifluoroacetyl)glycyl]acetamide] |  |  |  |  |  |  |  |  |  |  |  |  |  |  |  |  |  |  |  |  | fold lower IC50 than IC50 of (39) (CEM cells [9]): about 8 fold |
| C=CCOc1cc2c(c(OC)c1OC)-c1ccc(SC)c(=O)cc1[C@@H](N(C(C)=O)C(=O)CNC(=O)C(F)(F)F)CC2 [Compound 48, N-[(7S)-1,2-dimethoxy-10-methylsulfanyl-9-oxo-3-(prop-2-enoxy)-5,6,7,9-tetrahydrobenzo[α]heptalen-7-yl]-N-[(trifluoroacetyl)glycyl]acetamide] |  |  |  |  |  |  |  |  |  |  |  |  |  |  |  |  |  |  |  |  | fold lower IC50 than IC50 of (39) (CEM cells [9]): about 8 fold |
